In brackets after ≈: the same amount, converted by molar mass. Several values for one entry are separate records, joined by “and”; a condition that tells them apart may be missing. Identical values can stand only once. Like-named read-outs stand apart in the source and are kept apart here.
Columns and labels:
[1] = target: recombinant S. aureus MetRS enzyme (Staphylococcus aureus, UniProt A0A0H2XID2); experiment: Inhibition of SaMetRS, ATP depletion assay; type: biochemical; details: read-out: (B) MetRS (S. aureus) IC50
How it was run: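 N-terminal 6-His S. aureus MetRS (25 nM) was pre-incubated 15 min at room temperature with compound, 400 μg/mL E. coli tRNA and pyrophosphatase in HEPES-KOH pH 7.9, 2% DMSO. Reaction started with 150 nM ATP plus 20 μM L-methionine, ran 120 min; remaining ATP read by Kinase-Glo luminescence, IC50 by sigmoidal nonlinear regression.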

[2] = tested on: S. aureus MSSA (ATCC 29213); experiment: MIC susceptibility testing; type: cell-based, Staphylococcus aureus; details: S. aureus ATCC 29213; for MIC: Staphylococcus aureus, read-out: (F) S. aureus (ATCC 29213) MIC
S. pyogenes (ATCC 19615) = experiment: MIC susceptibility testing; type: cell-based; details: Streptococcus pyogenes, ATCC19615, S. pyogenes ATCC 19615; read-out: (H) S. pyogenes (ATCC 19615) MIC
Text: Media and culture conditions. Mueller Hinton broth (MHB), cation adjusted Mueller Hinton broth (CA-MHB), and Brain Heart Infusion broth (BHI) were purchased from Becton Dickinson (Franklin Lakes, N.J.). Tryptic soy agar (TSA) plates, TSA with 5% sheep blood plates, and CA-MHB with 3% laked horse blood were purchased from Remel (San Diego, Calif.). MHB was used to assay all Staphylococcus aureus strains. CA-MHB was used for Staphylococcus epidermidis, Enterococcus faecalis, Enterococcus faecium, Escherichia coli, and Pseudomonas aeruginosa. CA-MHB supplemented with 3% laked horse blood was used for Streptococcus pneumoniae and Streptococcus pyogenes. Staphylococcus, Enterococcus, Escherichia, and Pseudomonas strains were cultured at 37° C. with ambient air. Streptococcus strains were cultured in 37° C. with 5% CO2. Separate conditions for radiolabeled precursor uptake assays are described below.
Susceptibility testing: Minimum inhibitory concentration (MIC) determinations were performed in triplicate in 96-well round bottom microtiter plates (Corning, Corning N.Y.) as described by the Clinical and Laboratory Standards Institute (CLSI). Serial two-fold dilutions of compounds were added to plates in 50 μL volumes. An additional 50 μL of media containing bacterial cells (1×10^6 CFUs/mL) was then added to each well. Maximum DMSO concentrations were 0.5%. Plates were incubated at 37° C. for at least 18 h before reading the susceptibility result by optical absorbance (OD600) using a BioTek ELx800. The lowest concentration causing ≥90% growth inhibition compared to the untreated control was recorded as the MIC (and also corresponded to the visual MIC). MICs were measured at least twice and the higher value (if different) was recorded herein.

[3] = tested on: E. faecium VRE (ATCC 51559); experiment: MIC susceptibility testing; type: cell-based, Enterococcus faecium; details: E. faecium ATCC 51559; for MIC: Enterococcus faecium, read-out: (I) E. faecium (ATCC 51559) MIC
How it was run: (§1)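 CLSI broth microdilution in triplicate, 5×10^5 CFU/mL final, ≤0.5% DMSO; MHB for S. aureus, CA-MHB for E. coli and E. faecium, CA-MHB plus 3% laked horse blood for S. pyogenes (5% CO2).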

MetRS (T. brucei) = target: T1, MetRS (T. brucei) (Trypanosoma brucei brucei, UniProt Q38C91); experiment: MetRS (T. brucei) enzyme inhibition; type: biochemical
T1 sequence (Q38C91 1-773): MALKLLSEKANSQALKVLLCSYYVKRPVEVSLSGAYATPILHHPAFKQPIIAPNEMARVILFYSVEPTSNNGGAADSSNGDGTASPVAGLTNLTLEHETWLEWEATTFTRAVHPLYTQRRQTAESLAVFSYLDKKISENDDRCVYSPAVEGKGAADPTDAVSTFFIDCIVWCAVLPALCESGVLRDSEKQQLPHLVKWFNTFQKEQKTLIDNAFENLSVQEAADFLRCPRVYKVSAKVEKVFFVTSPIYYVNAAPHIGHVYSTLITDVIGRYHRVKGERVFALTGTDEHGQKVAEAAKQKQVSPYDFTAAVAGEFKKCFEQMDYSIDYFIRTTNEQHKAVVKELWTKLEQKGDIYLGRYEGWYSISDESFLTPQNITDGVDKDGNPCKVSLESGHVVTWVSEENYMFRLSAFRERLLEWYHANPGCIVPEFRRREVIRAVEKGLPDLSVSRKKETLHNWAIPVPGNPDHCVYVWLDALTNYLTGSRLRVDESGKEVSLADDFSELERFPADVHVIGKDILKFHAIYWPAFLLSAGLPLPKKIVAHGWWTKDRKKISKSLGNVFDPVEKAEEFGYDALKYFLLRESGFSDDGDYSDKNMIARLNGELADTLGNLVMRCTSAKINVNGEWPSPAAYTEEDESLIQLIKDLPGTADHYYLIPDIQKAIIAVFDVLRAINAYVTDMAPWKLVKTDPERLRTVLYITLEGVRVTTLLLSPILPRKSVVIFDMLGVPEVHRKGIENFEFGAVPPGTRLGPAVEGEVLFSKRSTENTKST

MetRS (C. parvum) = MetRS (C. parvum) (Cryptosporidium parvum, UniProt Q5CVN0); experiment: MetRS (C. parvum) enzyme inhibition; type: biochemical; details: read-out: (C) MetRS (C. parvum) IC50
T. brucei = T. brucei growth inhibition; type: cell-based, Trypanosoma brucei; details: read-out: (D) T. brucei EC50
T. cruzi = T. cruzi growth inhibition; type: cell-based, Trypanosoma cruzi; details: read-out: (E) T. cruzi EC50
C. parvum = C. parvum growth inhibition; type: cell-based, Cryptosporidium parvum; details: read-out: (J) C. parvum EC50
[4] = tested on: S. aureus MRSA (ATCC 33591); experiment: MIC susceptibility testing; type: cell-based, Staphylococcus aureus; details: MRSA ATCC33591; for MIC: Staphylococcus aureus, read-out: (G) MRSA (ATCC33591) MIC
How it was run: as §1

[5] = tested on: G. lamblia (ATCC GL50803); experiment: G. lamblia growth inhibition; type: cell-based; details: Giardia duodenalis, read-out: (K) G. lamblia (ATCC GL50803) EC50

Chain of MetRS (C. parvum) (Q5CVN0 entry or part of it): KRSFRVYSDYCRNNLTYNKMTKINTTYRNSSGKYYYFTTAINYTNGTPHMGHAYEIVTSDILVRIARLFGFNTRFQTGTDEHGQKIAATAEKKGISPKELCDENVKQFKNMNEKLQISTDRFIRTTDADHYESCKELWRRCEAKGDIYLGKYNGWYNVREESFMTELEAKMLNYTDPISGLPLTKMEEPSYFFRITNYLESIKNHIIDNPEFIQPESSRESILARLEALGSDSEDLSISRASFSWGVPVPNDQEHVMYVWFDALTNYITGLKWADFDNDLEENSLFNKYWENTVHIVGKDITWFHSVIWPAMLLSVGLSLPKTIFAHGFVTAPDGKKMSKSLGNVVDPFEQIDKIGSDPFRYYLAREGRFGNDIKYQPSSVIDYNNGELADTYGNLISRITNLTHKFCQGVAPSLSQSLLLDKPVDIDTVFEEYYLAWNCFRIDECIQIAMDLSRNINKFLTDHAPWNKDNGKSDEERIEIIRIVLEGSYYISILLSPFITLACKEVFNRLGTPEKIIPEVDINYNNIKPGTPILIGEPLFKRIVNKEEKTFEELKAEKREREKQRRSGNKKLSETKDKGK
Chain of recombinant S. aureus MetRS enzyme (A0A0H2XID2 2-657): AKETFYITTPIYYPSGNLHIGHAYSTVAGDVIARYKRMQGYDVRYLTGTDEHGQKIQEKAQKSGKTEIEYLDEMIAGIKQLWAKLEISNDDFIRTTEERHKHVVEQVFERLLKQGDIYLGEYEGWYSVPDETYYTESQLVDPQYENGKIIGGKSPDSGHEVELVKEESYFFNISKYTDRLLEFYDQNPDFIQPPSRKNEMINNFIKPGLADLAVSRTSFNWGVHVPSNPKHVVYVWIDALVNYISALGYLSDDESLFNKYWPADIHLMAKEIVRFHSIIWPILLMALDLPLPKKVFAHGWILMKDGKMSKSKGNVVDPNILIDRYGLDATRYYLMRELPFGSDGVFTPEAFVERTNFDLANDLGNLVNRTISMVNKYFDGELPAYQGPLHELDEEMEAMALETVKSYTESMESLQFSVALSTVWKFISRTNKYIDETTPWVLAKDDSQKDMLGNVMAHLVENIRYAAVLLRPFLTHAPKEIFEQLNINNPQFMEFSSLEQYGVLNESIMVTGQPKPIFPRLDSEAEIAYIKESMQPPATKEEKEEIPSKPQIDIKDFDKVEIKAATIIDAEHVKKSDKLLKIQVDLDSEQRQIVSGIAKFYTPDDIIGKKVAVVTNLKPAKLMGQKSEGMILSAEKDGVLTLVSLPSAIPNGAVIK

SMILES | IC50 [1] | MIC [2] | MIC (S. pyogenes (ATCC 19615)) | MIC [3] | IC50 (MetRS (T. brucei)) | IC50 (MetRS (C. parvum)) | EC50 (T. brucei; Trypanosoma brucei) | EC50 (T. cruzi; Trypanosoma cruzi) | EC50 (C. parvum; Cryptosporidium parvum) | MIC [4] | (F) S. aureus (ATCC 29213) MIC [2] | EC50 [5] | EC50 (T. brucei) | EC50 (T. cruzi) | EC50 (C. parvum) | (G) MRSA (ATCC33591) MIC [4] | (I) E. faecium (ATCC 51559) MIC [3]
C[S+]([O-])c1nc(Cc2ccc(Cl)cc2Cl)cn1Cc1nc2ccc(F)nc2[nH]1 (centres unmarked) [Compound 2120, 4-[(2,4-dichlorophenyl)methyl]-1-({5-fluoro-1H-imidazo[4,5-b]pyridin-2-yl}methyl)-2-methanesulfinyl-1H-imidazole] | < 25 nM | 1.26 µg/mL (≈ 2.87 µM) | > 4 µg/mL | 0.336 µg/mL (≈ 0.767 µM) | < 40 nM | < 40 nM | 13.6 nM | 295 nM | 1230 nM | – | – | – | – | – | – | – | –
COc1ccc(Cc2cn(Cc3nc4nc(Cl)ccc4[nH]3)c(=O)n2CC(C)(C)O)c(Cl)c1 [Compound 2207, 1-({5-chloro-1H-imidazo[4,5-b]pyridin-2-yl}methyl)-4-[(2-chloro-4-methoxyphenyl)methyl]-3-(2-hydroxy-2-methylpropyl)-2,3-dihydro-1H-imidazol-2-one] | – | 0.218 µg/mL (≈ 0.458 µM) | – | – | < 40 nM | < 40 nM | – | – | 129 nM | 0.334 µg/mL (≈ 0.701 µM) | 0.424 µg/mL | 30 nM | – | – | – | – | –
CCNC(=O)n1c(Cc2ccc(Cl)cc2Cl)cn(Cc2nc3nc(Cl)ccc3[nH]2)c1=O [Compound 2288, 3-({5-chloro-1H-imidazo[4,5-b]pyridin-2-yl}methyl)-5-[(2,4-dichlorophenyl)methyl]—N-ethyl-2-oxo-2,3-dihydro-1H-imidazole-1-carboxamide] | – | 1.16 µg/mL (≈ 2.42 µM) | > 2 µg/mL | – | – | – | 1.79 nM | 183 nM | – | > 2 µg/mL | – | – | – | – | – | – | –
C[S+]([O-])c1nc(Cc2ccc(Cl)cc2Cl)cn1Cc1nc2nc(Cl)ccc2[nH]1 (centres unmarked) [Compound 2110, 1-({5-chloro-1H-imidazo[4,5-b]pyridin-2-yl}methyl)-4-[(2,4-dichlorophenyl)methyl]-2-methanesulfinyl-1H-imidazole] | < 25 nM | 0.795 µg/mL (≈ 1.75 µM) | > 4 µg/mL | 1.99 µg/mL (≈ 4.38 µM) | < 40 nM | 98.6 nM | 19.4 nM | 178 nM | 1270 nM | 2.36 µg/mL (≈ 5.19 µM) | – | – | – | – | – | – | –
COc1ccc(-c2nccn3c(=O)n(Cc4nc5nc(Cl)ccc5[nH]4)cc23)c(Cl)c1 [Compound 2249, 2-({5-chloro-1H-imidazo[4,5-b]pyridin-2-yl}methyl)-8-(2-chloro-4-methoxyphenyl)-2H,3H-imidazo[1,5-a]pyrazin-3-one] | – | > 2 µg/mL | – | – | – | 122 nM | 30.9 nM | 76.4 nM | 1070 nM | – | 3.33, μg/ml and 3.16 μg/ml | 1200 nM | 31.6 nM | 114 nM | 1200 nM and 1140 nM and > 2000 nM | – | –
COc1cc(Cl)c(Cc2cn(Cc3nc4ccc(Cl)nc4[nH]3)c([S+](C)[O-])n2)cc1OC (centres unmarked) [Compound 2241, 1-({5-chloro-1H-imidazo[4,5-b]pyridin-2-yl}methyl)-4-[(2-chloro-4,5-dimethoxyphenyl)methyl]-2-methanesulfinyl-1H-imidazole] | – | – | 0.847 µg/mL (≈ 1.76 µM) | 0.0277 µg/mL (≈ 0.0577 µM) | – | < 40 nM | 2.12 nM | – | 1600 nM | 0.104 µg/mL (≈ 0.216 µM) | – | – | 1.52 nM and 1.8 nM and 1.71 nM | – | > 2000 nM | 0.113 µg/mL | 0.0206, μg/ml and 0.0160, μg/ml and 0.0189 μg/ml
COc1cc(Cl)c(-c2cccc3c2CN(Cc2nc4nc(Cl)ccc4[nH]2)C3=O)cc1OC [Compound 2231, 2-((5-chloro-1H-imidazo[4,5-b]pyridin-2-yl)methyl)-4-(2-chloro-4,5-dimethoxyphenyl)isoindolin-1-one] | – | – | – | – | – | < 40 nM | < 0.91 nM | – | – | < 0.00781 µg/mL | – | 10 nM | 0.66 nM | – | – | – | –
CCn1c(C(=O)c2ccc(OC)cc2Cl)cn(Cc2nc3ccc(Cl)nc3[nH]2)c1=O [Compound 2296, 1-({5-chloro-1H-imidazo[4,5-b]pyridin-2-yl}methyl)-4-(2-chloro-4-methoxybenzoyl)-3-ethyl-2,3-dihydro-1H-imidazol-2-one] | – | 0.21 µg/mL (≈ 0.471 µM) | 0.455 µg/mL (≈ 1.02 µM) | – | – | – | < 0.91 nM | 5.26 nM | 62 nM | – | – | – | 0.78 nM | 7.44 nM | – | – | –
COc1ccc(-c2ccc(NC(C)=O)c3nc(Cc4nc5nc(Cl)ccc5[nH]4)cn23)c(Cl)c1 [Compound 2169, N-[2-({5-chloro-1H-imidazo[4,5-b]pyridin-2-yl}methyl)-5-(2-chloro-4-methoxyphenyl)imidazo[1,2-a]pyridin-8-yl]acetamide] | – | 0.259 µg/mL (≈ 0.538 µM) | – | – | < 40 nM | < 40 nM | – | – | 144 nM | – | – | 10 nM | – | – | 195 nM | – | –
CC(C)n1c(Cc2ccc(Cl)cc2Cl)cn(Cc2nc3ccc(F)nc3[nH]2)c1=O [Compound 2080, 4-[(2,4-dichlorophenyl)methyl]-1-({5-fluoro-1H-imidazo[4,5-b]pyridin-2-yl}methyl)-3-(propan-2-yl)-2,3-dihydro-1H-imidazol-2-one] | – | 0.999 µg/mL (≈ 2.3 µM) | – | – | < 40 nM | < 40 nM | – | 220 nM | 610 nM | 1.4 µg/mL (≈ 3.22 µM) | – | 3850 nM | – | – | 434 nM | – | –
